Patent US10517889B2, “Modulators of SMAD7 expression” (Ionis Pharmaceuticals, Inc., priority 2017, dated 2019)

Assays:
[1] = Body and organ weights after oral gavage in CD-1 mice (Example 7); format: in vivo; settings: 500 mg/kg oral gavage once daily for 4 weeks, end of study
Experimental: (§1) Groups of 7-8 week old male CD-1 mice were given an oral gavage dose once daily for 4 weeks of 500 mg/kg of Ionis SMAD7 oligonucleotides. Each group contained 8 mice. One group of male CD-1 mice was administered saline by oral gavage daily.
Final body weights were measured at the end of the study. There was no significant difference in the body weight of the mice treated with antisense oligonucleotide compared to the control.
None of the Ionis SMAD7 oligonucleotides caused any changes in organ weights outside the expected range for antisense oligonucleotides.

[2] = Oligonucleotide concentration in tissues by LC-MS/MS after subcutaneous administration in beagle dogs (Example 8); format: in vivo; settings: 30 mg/kg subcutaneous, 48 hours after the last dose
Experimental: (§2) There were 4 animals per group.
Oligonucleotide concentrations of both ION 830025 and ION 798781 were detected in various tissues by LC-MS/MS analysis. The results are presented below, expressed as μg/g tissue. The data was collected 48 hours after the last dose.

dog SMAD7 mRNA = experiment: Pharmacology: dog SMAD7 mRNA expression in liver, kidney, duodenum, ileum and colon after subcutaneous administration in beagle dogs (Example 8); format: in vivo; settings: 30 mg/kg subcutaneous, necropsy, normalized to HPRT1
Experimental: as §2
The pharmacological activity of the Ionis oligonucleotides in dogs was assessed by measuring dog SMAD7 mRNA expression in liver, kidney, duodenum, ileum, and colon at necropsy. All the human ASOs used are complementary to dog SMAD7 mRNA.
Tissue samples from all dogs were analyzed for SMAD7 mRNA expression using the primer probe set RTS34649 (forward sequence […], designated SEQ ID NO: 2740; reverse sequence […], designated SEQ ID NO: 2741; probe sequence […], designated SEQ ID NO: 2742), which was normalized to mRNA levels of the housekeeping gene, HPRT1. One-way ANOVA with Dunnet's comparison test was used for statistical analysis.

[3] = Hematology assays after oral gavage in CD-1 mice (Example 7); format: in vivo; design: RBC: unit not given here; settings: 500 mg/kg oral gavage once daily for 4 weeks
Experimental: as §1
Blood obtained from all mouse groups was measured by an ADVIA2120i hematology analyzer (Siemens, USA) for measurements of the various blood cells, as well as other hematology markers. None of the Ionis SMAD7 oligonucleotides caused changes in the levels of any of the hematology markers outside the expected range for antisense oligonucleotides.

[4] = Body and organ weights after subcutaneous administration in beagle dogs (Example 8); format: in vivo; settings: 30 mg/kg subcutaneous days 1, 3, 5, 8, 15, 22, 29, end of study
Experimental: as §2
Body weights as well as kidney, spleen, liver (with gall bladder), mesenteric lymph node, heart, and thymus weights were measured at the end of the study. […] Ionis SMAD7 oligonucleotides that caused any changes in organ weights outside the expected range for antisense oligonucleotides were excluded from further studies.

human SMAD7 mRNA = experiment: Dose-dependent inhibition of human SMAD7 mRNA expression in Hep3B cells (Example 3, Study 1 and 2); format: cell-based; settings: electroporation; for % inhibition of SMAD7 mRNA expression: approximately 16 hours
Outline: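 Hep3B cells, 20,000 per well, electroporated with antisense oligonucleotide at 0.31, 1.25, 5.00 or 20.00 μM (first series) or 0.74, 2.22, 6.67 or 20.00 μM (second series). After ~16 h, SMAD7 mRNA measured by RT-qPCR (RTS5062), normalised to RIBOGREEN total RNA. Percent inhibition vs untreated cells; IC50 derived.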

[5] = Hematology assays after subcutaneous administration in beagle dogs (Example 8); format: in vivo; settings: 30 mg/kg subcutaneous days 1, 3, 5, 8, 15, 22, 29
Experimental: as §2
Blood samples were collected from the cephalic vein or saphenous vein of each animal. About 0.5 mL of blood samples was put into tubes containing the potassium salt of EDTA. Blood obtained from all dog groups was measured using an ADVIA2120i hematology analyzer for measurements of the various blood cells, as well as other hematology markers.

830037 (antisense CTATTGGCTGATCTGG; 3-10-3 cEt gapmer, further chemistry not given here) [compound 830037]
Body weight [1]: 35 g
Heart weight [1]: 0.17 g
Kidneys weight [1]: 0.69 g
Liver with gallbladder weight [1]: 1.93 g
Spleen weight [1]: 0.10 g
Full length oligonucleotide, Distal colon [2]: 46 µg/g
Full length oligonucleotide, Duodenum [2]: 55 µg/g
Full length oligonucleotide, Ileum [2]: 67 µg/g
Full length oligonucleotide, Kidney [2]: 894 µg/g
Full length oligonucleotide, Liver [2]: 521 µg/g
Full length oligonucleotide, Proximal colon [2]: 86 µg/g
% inhibition of SMAD7 mRNA expression (compared to control), Distal colon (dog SMAD7 mRNA): 22%
% inhibition of SMAD7 mRNA expression (compared to control), Duodenum (dog SMAD7 mRNA): 33%
% inhibition of SMAD7 mRNA expression (compared to control), Ileum (dog SMAD7 mRNA): 22%
% inhibition of Smad7 mRNA expression (compared to control), Kidney (dog SMAD7 mRNA): 40%
% inhibition of Smad7 mRNA expression (compared to control), Liver (dog SMAD7 mRNA): 0%
% inhibition of SMAD7 mRNA expression (compared to control), Proximal colon (dog SMAD7 mRNA): 50%
Basophils [3]: 0.01 10^3/μL
Eosinophils [3]: 0.15 10^3/μL
Hematocrit [3]: 53.4%
Hemoglobin [3]: 15.4 g/dL
Lymphocytes [3]: 73.2%
MCH [3]: 15.4 pg
MCHC [3]: 28.9 g/dL
MCV [3]: 53.2 fL
Monocytes [3]: 0.13 10^3/μL
Neutrophils [3]: 19.3%
RBC [3]: 10.1
Reticulocytes [3]: 3.1%
WBC [3]: 4.3 10^3/μL
platelets [3]: 1122 10^3/μL
Body weight [4]: 6437 g
Heart weight [4]: 51.9 g
Kidney weight [4]: 36.7 g
Liver weight [4]: 204.1 g
Mesenteric LN weight [4]: 9.0 g
Spleen weight [4]: 23.7 g
Thymus weight [4]: 6.3 g
% inhibition of SMAD7 mRNA expression (human SMAD7 mRNA; 740 nM, Study 2, relative to untreated control cells): 30%
% inhibition of SMAD7 mRNA expression (human SMAD7 mRNA; 2220 nM, Study 2): 56%
% inhibition of SMAD7 mRNA expression (human SMAD7 mRNA; 6670.0 nM, Study 2): 70%
% inhibition of SMAD7 mRNA expression (human SMAD7 mRNA; 20000.0 nM, Study 2): 87%
IC50 (human SMAD7 mRNA; Study 2 (740-20000 nM)): 3 µM
Basophils [5]: 0.7%
Eosinophils [5]: 2.6%
Hematocrit [5]: 52%
Hemoglobin [5]: 17.5 g/dL
Lymphocytes [5]: 32%
MCH [5]: 22.1 pg
MCHC [5]: 33.6 g/dL
MCV [5]: 66 fL
Monocytes [5]: 8.0%
Neutrophils [5]: 57%
PLT [5]: 280 ^3/μL
RBC [5]: 8.0 ^6/L
Reticulocytes [5]: 0.3%
WBC [5]: 8.5 ^3/μL

790615 (CCAATGAGAATGCTTC; 3-10-3 cEt gapmer, further chemistry not given here) [compound 790615]
Body weight [1]: 35 g
Heart weight [1]: 0.17 g
Kidneys weight [1]: 0.64 g
Liver with gallbladder weight [1]: 1.88 g
Spleen weight [1]: 0.11 g
Full length oligonucleotide, Distal colon [2]: 17 µg/g
Full length oligonucleotide, Duodenum [2]: 17 µg/g
Full length oligonucleotide, Ileum [2]: 18 µg/g
Full length oligonucleotide, Kidney [2]: 1156 µg/g
Full length oligonucleotide, Liver [2]: 220 µg/g
Full length oligonucleotide, Proximal colon [2]: 17 µg/g
% inhibition of SMAD7 mRNA expression (compared to control), Distal colon (dog SMAD7 mRNA): 31%
% inhibition of SMAD7 mRNA expression (compared to control), Duodenum (dog SMAD7 mRNA): 35%
% inhibition of SMAD7 mRNA expression (compared to control), Ileum (dog SMAD7 mRNA): 0%
% inhibition of Smad7 mRNA expression (compared to control), Kidney (dog SMAD7 mRNA): 37%
% inhibition of Smad7 mRNA expression (compared to control), Liver (dog SMAD7 mRNA): 9%
% inhibition of SMAD7 mRNA expression (compared to control), Proximal colon (dog SMAD7 mRNA): 41%
Basophils [3]: 0.01 10^3/μL
Eosinophils [3]: 0.11 10^3/μL
Hematocrit [3]: 52.2%
Hemoglobin [3]: 15.2 g/dL
Lymphocytes [3]: 78.3%
MCH [3]: 15.0 pg
MCHC [3]: 29.1 g/dL
MCV [3]: 51.6 fL
Monocytes [3]: 0.15 10^3/μL
Neutrophils [3]: 16.0%
RBC [3]: 10.1
Reticulocytes [3]: 2.8%
WBC [3]: 5.4 10^3/μL
platelets [3]: 1033 10^3/μL
Body weight [4]: 7372 g
Heart weight [4]: 63.6 g
Kidney weight [4]: 44.1 g
Liver weight [4]: 253.7 g
Mesenteric LN weight [4]: 10.2 g
Spleen weight [4]: 32.3 g
Thymus weight [4]: 9.9 g
Basophils [5]: 0.5%
Eosinophils [5]: 2.6%
Hematocrit [5]: 45%
Hemoglobin [5]: 14.5 g/dL
Lymphocytes [5]: 36%
MCH [5]: 21.9 pg
MCHC [5]: 32.5 g/dL
MCV [5]: 68 fL
Monocytes [5]: 7.9%
Neutrophils [5]: 53%
PLT [5]: 242 ^3/μL
RBC [5]: 6.6 ^6/L
Reticulocytes [5]: 0.7%
WBC [5]: 7.1 ^3/μL
